Structures can show the parent of a compound that is named as a salt.
Compound	melting point [°C]
COC(=O)c1ccc(CN(c2ccc(C#N)cc2)n2ccnc2)cc1 [Example 27, Methyl 4-[N-(4-cyanophenyl)-N-(1H-imidazol-1-yl)aminomethyl]benzoate]	178
N#Cc1ccc(N(Cc2ccc(Cl)cc2)n2ccnc2)cc1 (as salt: hydrochloride) [Example 7, 4-[N-(1H-imidazol-1-yl)-N-(4-chlorophenylmethyl)amino]benzonitrile]	190
COc1ccc(CN(c2ccc(C#N)cc2)n2ccnc2)cc1 (as salt: hydrochloride) [Example 8, 4-[N-(1H-imidazol-1-yl)-N-(4-methoxyphenylmethyl)amino]benzonitrile]	178
N#Cc1ccc(N(Cc2ccc(F)cc2)n2ccnc2)cc1 (as salt: hydrochloride) (hydrate or solvate) [Example 14, 4-[N-(1H-imidazol-1-yl)-N-(4-fluorophenylmethyl)amino]benzonitrile]	176 to 178
N#Cc1ccc(N(Cc2ccc(Br)cc2)n2ccnc2)cc1 (as salt: hydrochloride) [Example 20, 4-[N-(1H-imidazol-1-yl)-N-(4-bromophenylmethyl)amino]benzonitrile]	125
COc1ccc(CN(c2ccc(C#N)cc2)n2ccnc2)cc1OC (as salt: hydrochloride) [Example 12, 4-[N-(1H-imidazol-1-yl)-N-(3,4-dimethoxyphenylmethyl)amino]benzonitrile]	167
Cc1ncn(N(Cc2ccc(Br)cc2)c2ccc(C#N)cc2)c1C [Example 32, 4-[N-(4,5-dimethyl-1H-imidazol-1-yl)-N-(4-bromophenylmethyl)amino]benzonitrile]	150
COc1ccc(CN(c2ccc(C#N)cc2)n2ccnc2)cc1F (as salt: hydrochloride) [Example 9, 4-[N-(1H-imidazol-1-yl)-N-(3-fluoro-4-methoxyphenylmethyl)amino]benzonitrile]	190
N#Cc1ccc(CN(c2ccc(C#N)cc2)n2ccnc2)cc1 (as salt: hydrochloride) [Example 11, 4-[N-(1H-imidazol-1-yl)-N-(4-cyanophenylmethyl)amino]benzonitrile]	195
N#Cc1ccc(N(c2ccc(C#N)cc2)n2ccnc2)cc1 (as salt: hydrochloride) [Example 13, 4,4′-[N-(1H-imidazol-1-yl)amino]bis-benzonitrile]	199
